From patent US4536335A, “Carbapenem antibiotics” (Bristol-Myers Company, priority 1983, dated 1985)
In brackets after ≈: the same amount, converted by molar mass. Like-named read-outs stand apart in the source and are kept apart here.

Legend:
E. coli A20341-1 = experiment: In vitro MIC, tube dilution; type: cell-based; conditions: Escherichia coli, A203411, tube dilution, Nutrient Broth, overnight incubation at 37° C.; additional data table
P. morganii A15153 = experiment: In vitro MIC, tube dilution; type: cell-based; conditions: Morganella morganii, A15153, tube dilution, Nutrient Broth, overnight incubation at 37° C.; additional data table; read-out: MIC M. morganii A15153
P. aeruginosa A21213 = experiment: In vitro MIC, tube dilution; type: cell-based; conditions: Pseudomonas aeruginosa, A21213, tube dilution, Nutrient Broth, overnight incubation at 37° C.; additional data table
[1] = Urinary recovery after intramuscular administration to mice; type: in vivo; conditions: mouse, urine, im, 20 mg/kg, intramuscular dose of 20 mg/kg, 0-6 hour collection, read-out: Urine Recovery
Description: Compounds were solubilized in 0.1 M phosphate buffer pH 7. Values are from a single test; 4 mice per compound.
(§1) Also shown is the urinary recovery in the mice.
***Recovery based on 0-6 hour collection

S. faecalis A20688 = experiment: In vitro MIC, tube dilution; type: cell-based; conditions: Enterococcus faecalis, A20688, tube dilution, Nutrient Broth, overnight incubation at 37° C.; additional data table
S. marcescens A20019 = experiment: In vitro MIC, tube dilution; type: cell-based; conditions: Serratia marcescens, A20019, tube dilution, Nutrient Broth, overnight incubation at 37° C.; additional data table
E. cloacae A-9659 = experiment: In vitro MIC, tube dilution; type: cell-based; conditions: Enterobacter cloacae, A9659, tube dilution, Nutrient Broth, overnight incubation at 37° C.; additional data table
From the text: N-formimidoyl thienamycin was included as a comparison compound.

S. pneumoniae A-9585 = experiment: In vitro MIC, tube dilution; type: cell-based; conditions: Streptococcus pneumoniae, A9585, Nutrient Broth, overnight incubation at 37° C., additional data table
P. vulgaris A21559 = experiment: In vitro MIC, tube dilution; type: cell-based; conditions: Proteus vulgaris, A21559, tube dilution, Nutrient Broth, overnight incubation at 37° C.; additional data table
K. pneumoniae A20468 = experiment: In vitro MIC, tube dilution; type: cell-based; conditions: Klebsiella pneumoniae, A20468, tube dilution, Nutrient Broth, overnight incubation at 37° C.; additional data table
S. pyogenes A-9604 = experiment: In vitro MIC, tube dilution; type: cell-based; conditions: Streptococcus pyogenes, A9604, tube dilution, Nutrient Broth, overnight incubation at 37° C.; additional data table
P. mirabilis A-9900 = experiment: In vitro MIC, tube dilution; type: cell-based; conditions: Proteus mirabilis, A9900, tube dilution, Nutrient Broth, overnight incubation at 37° C.; additional data table
S. aureus A-9537 = experiment: In vitro MIC, tube dilution; type: cell-based; conditions: Staphylococcus aureus, overnight incubation at 37° C., additional data table
E. cloacae A-9656 = experiment: In vitro MIC, tube dilution; type: cell-based; conditions: Enterobacter cloacae, A9656, tube dilution, Nutrient Broth, overnight incubation at 37° C.; additional data table
P. aeruginosa A-9843A [2] = experiment: In vitro MIC, tube dilution; type: cell-based; conditions: Pseudomonas aeruginosa, A9843A, Nutrient Broth, overnight incubation at 37° C., additional data table
P. rettgeri A22424 = experiment: In vitro MIC, tube dilution; type: cell-based; conditions: Providencia rettgeri, A22424, tube dilution, Nutrient Broth, overnight incubation at 37° C.; additional data table
K. pneumoniae A-9664 = experiment: In vitro MIC, tube dilution; type: cell-based; conditions: Klebsiella pneumoniae, A9664, tube dilution, Nutrient Broth, overnight incubation at 37° C.; additional data table
[3] = Half-life in phosphate buffer solution; type: physicochemical
Description: A solution of para-nitrobenzyl 3-[2-(N-methylthiomorpholinium diphenylphosphate)ethylthio]-6α-[1'-(R)-hydroxyethyl]-7-oxo-1-azabicyclo[3.2.0]hept-2-ene-2-carboxylate (1.31 g, 1.76 mmol) in 0.1 M pH 7.4 phosphate buffer (48.8 mL), tetrahydrofuran (20 mL) and diethyl ether (20 mL) was hydrogenated over 10% pd/C (1.5 g) in a Parr shaker for 1 h at 40 psi. The reaction mixture was diluted with diethyl ether (40 mL) and the phases were separated. The organic phase was washed with water (2×5 mL). The aqueous phases were combined, filtered through a #52 hardened filter paper, washed with diethyl ether (2×20 mL) and pumped under vacuum. The aqueous solution was poured on a silica gel reverse phase column and the desired carbapenem was eluted with 5% acetonitrile-water.
To a solution of p-nitrobenzyl (5R,6S)-3-[2-(1-methylmorpholino)ethylthio]-6-[(R)-1-hydroxyethyl]-7-oxo-1-azabicyclo[3.2.0]hept-2-ene-2-carboxylate diphenylphosphate (0.360 g, 0.49 mmol) in 13 mL of phosphate buffer (0.05 M pH 7.4) was added 0.36 g of 10% palladium-on-charcoal, 20 mL of tetrahydrofuran and 20 mL of diethyl ether. This mixture was hydrogenated (Parr) at 32 psi for 1 h. The mixture was filtered through Celite and the filter pad was washed with H2 O and diethyl ether. The aqueous phase was separated and the pH was adjusted to 7.0 with additional pH 7.4 phosphate buffer. After removing residual organic solvents in vacuo the aqueous solution was applied to a C18 reverse-phase column.
To a solution of (5R,6S)paranitrobenzyl 3-[2-(1,4-dimethyl-1-piperazinium)ethylthio]-6-[1-(R)-hydroxyethyl]-7-oxo- 1-azabicyclo[3.2.0]hept-2-ene-2-carboxylate diphenylphosphate (0.47 g, 0.623 mmol) in wet tetrahydrofuran (25 mL) was added diethyl ether (25 mL), potassium phosphate monobasic-sodium hydroxide buffer (13 mL, pH 7.22) and 10% palladium on charcoal (0.47 g). The resulting mixture was hydrogenated at 23° C. under 40 psi for 1 h. The two layers were separated and the organic layer was extracted with water (2×7 mL).
To a cold (-10° C.) solution of (5R,6S)-3-[2 -(N-methyl-thiomorpholinium)ethylthio]-6-[1-(R)-hydroxyethyl]-7-oxo-1-azabicyclo(3.2.0)-hept-2-ene-2-carboxylate (608 mg, 1.65 mmol) in a 1:1 mixture of acetonitrile-water (9 mL) was added m-chloroperbenzoic acid (334.8 mg, 1.65 mmol) in small portion over a 1 hour period. The mixture was then diluted with water (15 mL) and washed with diethyl ether (3×15 mL).
A mixture of (5R,6S) paranitrobenzyl 3-[2-(1,4,4-trimethyl-1-piperazinium)ethylthio]-6-[1R-hydroxyethyl]-7-oxo- 1-azabicyclo(3.2.0)hept-2-ene-2-carboxylate bischloride (0.40 g, 0.68 mmol), phosphate buffer (30 mL, 0.05M, pH 7.0), tetrahydrofuran (10 mL), ether (30 mL) and 10% palladium on charcoal (0.40 g) was hydrogenated at 23° C. under 35 psi for 1 h. The two phases were separated. The organic phase was extracted with water (10 mL).

[4] = tested on: S. aureus A-9606 (Pen-res.); experiment: In vitro MIC, tube dilution; type: cell-based; conditions: Staphylococcus aureus, Nutrient Broth, overnight incubation at 37° C., additional data table, read-out: MIC S. aureus (Pen-res.) A-9606
[5] = Blood levels in mice after intramuscular administration; type: in vivo; conditions: mouse, blood, im, 20 mg/kg, intramuscular dose of 20 mg/kg
From the text: Compounds were solubilized in 0.1 M phosphate buffer pH 7. Values are fro
a single test; 4 mice used per compound.
*t1/2 refers to halflife in minutes
**AUC refers to the area under the blood concentrationtime curve
as §1
Compounds were solubilized in 0.1 M phosphate buffer, pH 7.
Values based on a single test; 4 mice per compound.
*T1/2 refers to halflife in minutes

E. coli A15119 = experiment: In vitro MIC, tube dilution; type: cell-based; conditions: Escherichia coli, A15119, tube dilution, Nutrient Broth, overnight incubation at 37° C.; additional data table
P. aeruginosa A20481 = experiment: Protective effect in the intramuscular treatment of infected mice (PD50); type: in vivo; conditions: Pseudomonas aeruginosa, A20481, im; mice infected i.p. (Ex. 2: 1 × 10^5 organisms), treated i.m. 0 and 2 h postinfection
P. aeruginosa A-9843a [6] = experiment: as above; type: in vivo; conditions: Pseudomonas aeruginosa, A9843A, im, read-out: PD50/treatment, P. aeruginosa A9843A
Description: The PD50 (dose in mg/kg required to give protection to 50% of the infected mice) is indicated.
Treatment Schedule: Mice were treated i.m. with drugs 0 and 2 hours post-infection; 5 mice per dose were used for each test
*For compound of Ex. 2, mice were infected i.p. with 2 × 10^9
compounds of Ex. 4 and 5, mice were infected i.p. with ~9 ×
were treated i.m. with drugs 0 and 2 h postinfection.

[7] = A9537, 50% serum, tube dilution, read-out: MIC S. aureus-50% serum A-9537
[8] = A9537, tube dilution, Nutrient Broth, read-out: MIC S. aureus A-9537

| SMILES | MIC (E. coli A20341-1) [µg/mL] | MIC (P. morganii A15153) [µg/mL] | MIC (P. aeruginosa A21213) [µg/mL] | MIC (S. faecalis A20688) [µg/mL] | MIC (S. marcescens A20019) [µg/mL] | MIC (E. cloacae A-9659) [µg/mL] | MIC (S. pneumoniae A-9585) [µg/mL] | MIC (P. vulgaris A21559) [µg/mL] | MIC (K. pneumoniae A20468) [µg/mL] | MIC (S. pyogenes A-9604) [µg/mL] | MIC (P. mirabilis A-9900) [µg/mL] | MIC (S. aureus A-9537; [7]) [µg/mL] | MIC (S. aureus A-9537; [8]) [µg/mL] | MIC (E. cloacae A-9656) [µg/mL] | MIC (P. aeruginosa A-9843A [2]) [µg/mL] | MIC (P. rettgeri A22424) [µg/mL] | MIC (K. pneumoniae A-9664) [µg/mL] | MIC [4] [µg/mL] | MIC (E. coli A15119) [µg/mL] | other results |
| --- | --- | --- | --- | --- | --- | --- | --- | --- | --- | --- | --- | --- | --- | --- | --- | --- | --- | --- | --- | --- |
| C[C@@H](O)[C@H]1C(=O)N2C(C(=O)[O-])=C(SCC[N+]3(C)CCOCC3)C[C@H]12 [Example 3, (5R,6S)-3-[2-(1-methylmorpholino)ethylthio]-6-[(R)-1-hydroxyethyl]-7-oxo-1-azabicyclo[3.2.0]hept-2-ene-2-carboxylate] | 0.03 (≈ 0.0842 µM) | 0.13 (≈ 0.365 µM) | 8 (≈ 22.4 µM) | 0.5 (≈ 1.4 µM) | 0.06 (≈ 0.168 µM) | 0.25 (≈ 0.701 µM) | 0.03 (≈ 0.0842 µM) | 0.03 (≈ 0.0842 µM) | 0.25 (≈ 0.701 µM) | 0.03 (≈ 0.0842 µM) | 0.13 (≈ 0.365 µM) | 0.13 (≈ 0.365 µM) | 0.03 (≈ 0.0842 µM) | 0.5 (≈ 1.4 µM) | 63 (≈ 177 µM) | 0.5 (≈ 1.4 µM) | 0.13 (≈ 0.365 µM) | 0.03 (≈ 0.0842 µM) | 0.03 (≈ 0.0842 µM) | dose excreted at 6 h [1]: 15 ± 3%; half-life ([3]; phosphate buffer, pH 7.4, pH 7.4, 36.8° C., read-out: t1/2 (solution stability) (converted)): 18.5 h; Cmax [5]: 16200 ng/mL; AUC ([5]; read-out: Blood AUC): 4800 ng·h/mL; half-life ([5]; read-out: Blood T1/2): 8 min |
| C[C@@H](O)[C@H]1C(=O)N2C(C(=O)[O-])=C(SCC[N+]3(C)CCSCC3)C[C@H]12 [Example 2, 3-[2-(N-Methyl-thiomorpholinium)ethylthio]-6α-[1'-(R)-hydroxyethyl]-7-oxo-1-azabicyclo[3.2.0]-hept-2-ene-2-carboxylate] | 0.03 (≈ 0.0805 µM) | 0.06 (≈ 0.161 µM) | 8 (≈ 21.5 µM) | 0.25 (≈ 0.671 µM) | 0.06 (≈ 0.161 µM) | 0.13 (≈ 0.349 µM) | 0.001 (≈ 0.00268 µM) | 0.03 (≈ 0.0805 µM) | 0.13 (≈ 0.349 µM) | 0.002 (≈ 0.00537 µM) | 0.06 (≈ 0.161 µM) | 0.016 (≈ 0.043 µM) | 0.008 (≈ 0.0215 µM) | 0.13 (≈ 0.349 µM) | 32 (≈ 85.9 µM) | 0.13 (≈ 0.349 µM) | 0.06 (≈ 0.161 µM) | 0.016 (≈ 0.043 µM) | 0.016 (≈ 0.043 µM) | ED50 (P. aeruginosa A20481): 33 mg/kg; ED50 (P. aeruginosa A-9843a [6]): 4.7 mg/kg; half-life ([3]; 0.1 m phosphate buffer, pH 7, 0.1 M pH 7 phosphate buffer, 37° C., read-out: T1/2 (solution stability) (converted)): 17.7 h |
